Tested on: 633275-114-R-J1-PDC complex spheroids, viability
Assay: Anticancer human tumor 633275-114-R-J1-PDC patient-derived endometrial adenocarcinoma cell line growth inhibition [GQUAD]
Settings: for IC50: curve of first compound; for viability, T/C: stronger effect = lower value
Method in brief: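 Viability of tumor cells grown as complex spheroids with endothelial and stromal cells, exposed to drug combinations. Top concentration at or near clinical Cmax (else 10 microM), diluted in half-log increments.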

[1] = second compound 0.0316 µM, first compound 0.0316 µM
[2] = second compound 0.0316 µM, first compound 0.1 µM
[3] = second compound 0.0316 µM, first compound 0.316 µM
[4] = second compound 0.0316 µM, first compound 1 µM
[5] = second compound 0.0316 µM, first compound 3.16 µM
[6] = second compound 0.0316 µM, first compound 10 µM
[7] = second compound 0.1 µM, first compound 0.0316 µM
[8] = second compound 0.1 µM, first compound 0.1 µM
[9] = second compound 0.1 µM, first compound 0.316 µM
[10] = second compound 0.1 µM, first compound 1 µM
[11] = second compound 0.1 µM, first compound 3.16 µM
[12] = second compound 0.1 µM, first compound 10 µM
[13] = second compound 0.316 µM, first compound 0.0316 µM
[14] = second compound 0.316 µM, first compound 0.1 µM
[15] = second compound 0.316 µM, first compound 0.316 µM
[16] = second compound 0.316 µM, first compound 1 µM
[17] = second compound 0.316 µM, first compound 3.16 µM
[18] = second compound 0.316 µM, first compound 10 µM
[19] = second compound 1 µM, first compound 0.0316 µM
[20] = second compound 1 µM, first compound 0.1 µM
[21] = second compound 1 µM, first compound 0.316 µM
[22] = second compound 1 µM, first compound 1 µM
[23] = second compound 1 µM, first compound 3.16 µM
[24] = second compound 1 µM, first compound 10 µM
[25] = second compound 3.16 µM, first compound 0.0316 µM
[26] = second compound 3.16 µM, first compound 0.1 µM
[27] = second compound 3.16 µM, first compound 0.316 µM
[28] = second compound 3.16 µM, first compound 1 µM
[29] = second compound 3.16 µM, first compound 3.16 µM
[30] = second compound 3.16 µM, first compound 10 µM
[31] = second compound 10 µM, first compound 0.0316 µM
[32] = second compound 10 µM, first compound 0.1 µM
[33] = second compound 10 µM, first compound 0.316 µM
[34] = second compound 10 µM, first compound 1 µM
[35] = second compound 10 µM, first compound 3.16 µM
[36] = second compound 10 µM, first compound 10 µM
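Also: spheroids exposed to the agents for seven days.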
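For viability, T/C in this document: percent of DMSO vehicle control viability which is 100%.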

## CCCS(=O)(=O)Nc1ccc(F)c(C(=O)c2c[nH]c3ncc(-c4ccc(Cl)cc4)cc23)c1F + Cc1[nH]c2ccc(F)cc2c1-c1nc2c3cccnc3c3ncccc3c2[nH]1
Second compound 0.0316 µM
  IC50: 9.54 µM
Second compound 0.1 µM
  IC50: 9.21 µM
Second compound 0.316 µM
  IC50: 8.58 µM
Second compound 1 µM
  IC50: 8.24 µM
Second compound 3.16 µM
  IC50: 7.09 µM
Second compound 10 µM
  IC50: > 10 µM
[1]
  viability, T/C: 103%
[2]
  viability, T/C: 94.6%
[3]
  viability, T/C: 107%
[4]
  viability, T/C: 100%
[5]
  viability, T/C: 86.8%
[6]
  viability, T/C: 48.1%
[7]
  viability, T/C: 100%
[8]
  viability, T/C: 108%
[9]
  viability, T/C: 102%
[10]
  viability, T/C: 102%
[11]
  viability, T/C: 91.6%
[12]
  viability, T/C: 46.7%
[13]
  viability, T/C: 91.2%
[14]
  viability, T/C: 98.9%
[15]
  viability, T/C: 103%
[16]
  viability, T/C: 104%
[17]
  viability, T/C: 94.7%
[18]
  viability, T/C: 43.1%
[19]
  viability, T/C: 86.4%
[20]
  viability, T/C: 88.8%
[21]
  viability, T/C: 92.5%
[22]
  viability, T/C: 90.2%
[23]
  viability, T/C: 90.1%
[24]
  viability, T/C: 42%
[25]
  viability, T/C: 70.7%
[26]
  viability, T/C: 71.2%
[27]
  viability, T/C: 66.9%
[28]
  viability, T/C: 76.2%
[29]
  viability, T/C: 71.2%
[30]
  viability, T/C: 41%
[31]
  viability, T/C: 60.4%
[32]
  viability, T/C: 64.3%
[33]
  viability, T/C: 65.2%
[34]
  viability, T/C: 74.4%
[35]
  viability, T/C: 63.3%
[36]
  viability, T/C: 41.1%

## C#Cc1c(F)ccc2cc(O)cc(-c3ncc4c(N5CC6CCC(C5)N6)nc(OCC56CCCN5CC(F)C6)nc4c3F)c12 (stereo unspecified) + CN(C)c1ccc(Nc2c3ccc(NC(=O)CCN4CCCC4)cc3nc3cc(NC(=O)CCN4CCCC4)ccc23)cc1
Second compound 0.0316 µM
  IC50: > 10 µM
Second compound 0.1 µM
  IC50: > 10 µM
Second compound 0.316 µM
  IC50: > 10 µM
Second compound 1 µM
  IC50: > 10 µM
Second compound 3.16 µM
  IC50: 4.36 µM
Second compound 10 µM
  IC50: < 0.0316 µM
[1]
  viability, T/C: 108%
[2]
  viability, T/C: 90.5%
[3]
  viability, T/C: 86.9%
[4]
  viability, T/C: 91.9%
[5]
  viability, T/C: 78%
[6]
  viability, T/C: 66%
[7]
  viability, T/C: 101%
[8]
  viability, T/C: 97.8%
[9]
  viability, T/C: 91.5%
[10]
  viability, T/C: 96.7%
[11]
  viability, T/C: 81.5%
[12]
  viability, T/C: 65.3%
[13]
  viability, T/C: 94.6%
[14]
  viability, T/C: 101%
[15]
  viability, T/C: 86.8%
[16]
  viability, T/C: 82.3%
[17]
  viability, T/C: 71.9%
[18]
  viability, T/C: 68.1%
[19]
  viability, T/C: 97.5%
[20]
  viability, T/C: 96.5%
[21]
  viability, T/C: 87.2%
[22]
  viability, T/C: 85.9%
[23]
  viability, T/C: 70.6%
[24]
  viability, T/C: 54.9%
[25]
  viability, T/C: 81.9%
[26]
  viability, T/C: 86.3%
[27]
  viability, T/C: 81.6%
[28]
  viability, T/C: 66.3%
[29]
  viability, T/C: 62%
[30]
  viability, T/C: 28.1%
[31]
  viability, T/C: 32.5%
[32]
  viability, T/C: 29.2%
[33]
  viability, T/C: 23.3%
[34]
  viability, T/C: 23.6%
[35]
  viability, T/C: 16.1%
[36]
  viability, T/C: 5.22%

## CC(C)n1c(=O)n(C)c2cnc3cc(F)c(-c4ccc(OCCCN5CCCCC5)nc4)cc3c21 + Cc1[nH]c2ccc(F)cc2c1-c1nc2c3cccnc3c3ncccc3c2[nH]1
Second compound 0.0316 µM
  IC50: > 10 µM
Second compound 0.1 µM
  IC50: > 10 µM
Second compound 0.316 µM
  IC50: > 10 µM
Second compound 1 µM
  IC50: > 10 µM
Second compound 3.16 µM
  IC50: > 10 µM
Second compound 10 µM
  IC50: > 10 µM
[1]
  viability, T/C: 109%
[2]
  viability, T/C: 105%
[3]
  viability, T/C: 109%
[4]
  viability, T/C: 100%
[5]
  viability, T/C: 95.3%
[6]
  viability, T/C: 68.3%
[7]
  viability, T/C: 109%
[8]
  viability, T/C: 105%
[9]
  viability, T/C: 108%
[10]
  viability, T/C: 101%
[11]
  viability, T/C: 97.8%
[12]
  viability, T/C: 70.5%
[13]
  viability, T/C: 106%
[14]
  viability, T/C: 105%
[15]
  viability, T/C: 99.8%
[16]
  viability, T/C: 99.2%
[17]
  viability, T/C: 99.9%
[18]
  viability, T/C: 71.2%
[19]
  viability, T/C: 106%
[20]
  viability, T/C: 98.2%
[21]
  viability, T/C: 103%
[22]
  viability, T/C: 90.9%
[23]
  viability, T/C: 98.7%
[24]
  viability, T/C: 70.7%
[25]
  viability, T/C: 79.8%
[26]
  viability, T/C: 76.3%
[27]
  viability, T/C: 76.2%
[28]
  viability, T/C: 72.2%
[29]
  viability, T/C: 68.9%
[30]
  viability, T/C: 55.1%
[31]
  viability, T/C: 76.4%
[32]
  viability, T/C: 74.4%
[33]
  viability, T/C: 73.9%
[34]
  viability, T/C: 74.1%
[35]
  viability, T/C: 75%
[36]
  viability, T/C: 55.4%

Source: PubChem BioAssay AID2060505 (Molecular Pharmacology Branch, DTP, NCI, 2025)
